Laboratory results as given in patent US20210130417A1, “SYSTEMS AND METHODS FOR DESIGNING SYNTHETIC ANTIMICROBIAL PEPTIDES” (University of Notre Dame du Lac, priority 2017, published 2021).
Residues, ends and D or L forms follow the SMILES beside them.

How the values were obtained:
[1] = test system: HaCaT cells; assay: Ethidium homodimer cytotoxicity assay; format: cell-based, human
Experimental: Medium was aspirated, and cells were washed with PBS. […] Cells were incubated with peptide for 16 h. Medium was aspirated, and cells were washed with PBS. […] The fluorescence was read again. […] Washed cells were resuspended in 25 mL of PBS. […] Samples were read at 450 nm.

[2] = test system: sheep red blood cells (RBCs); conditions: at the concentrations tested
Experimental: For hemolysis assays, 100 μL of sheep red blood cells (RBCs) were washed three times in cold PBS (Thermo Fischer). Washed cells were resuspended in 25 mL of PBS. Triton, PBS, or peptide in 10% DMSO/PBS were added to 180 μL of resuspended RBCs and incubated at 37° C. for 1 h. Samples were read at 450 nm. Data was expressed as percent hemolysis by relativizing to the Triton and PBS controls.

For `CC[C@H](C)[C@H](NC(=O)[C@H](CC(C)C)NC(=O)[C@H](CO)NC(=O)[C@@H](N)CC(C)C)C(=O)N[C@@H](C)C(=O)N[C@@H](C)C(=O)N[C@@H](C)C(=O)NCC(=O)N[C@@H](CCCCN)C(=O)N[C@@H](CCC(=O)O)C(=O)N[C@H](C(=O)N[C@H](C(=O)N[C@@H](CCCNC(=N)N)C(=O)N[C@@H](CCC(N)=O)C(=O)N[C@@H](Cc1ccc(O)cc1)C(=O)N[C@@H](CC(C)C)C(=O)N[C@@H](CCCCN)C(=O)N[C@@H](CC(N)=O)C(=O)N[C@@H](CCC(=O)O)C(=O)N[C@H](C(=O)N[C@@H](CCCCN)C(=O)N[C@@H](CCCCN)C(=O)N[C@@H](CCCCN)C(=O)NCC(=O)N[C@@H](CCCNC(=N)N)C(=O)N[C@@H](CCCCN)C(=O)N[C@@H](C)C(=O)N[C@H](C(=O)N[C@H](C(=O)N[C@@H](C)C(=O)N[C@@H](Cc1c[nH]c2ccccc12)C(=O)O)[C@@H](C)CC)C(C)C)[C@@H](C)CC)[C@@H](C)CC)[C@@H](C)O` [syn-safencin] (H-LSLIAAAGKETIRQYLKNEIKKKGRKAVIAW-OH), the “cytotoxicity, dose dependence” value ([1]; HaCaT cells treated for 16 h, up to 32 μM) was “slight dose-dependent increase in cytotoxicity”, the “cytotoxicity at the MIC for X. axonopodis” value ([1]; HaCaT cells, 16 h, 8 μM peptide) was “no significant increase in cytotoxicity” and the percent of cytotoxicity ([1]; HaCaT cells, 16 h, 32 μM peptide (highest dose), vehicle control 17%) was roughly 25%. The hemolytic activity [2] was “mild hemolytic activity”.
